Results on 15 compounds are retold here after US7446199B2, “Compositions useful as inhibitors of protein kinases” (Vertex Pharmaceuticals Incorporated, priority 2003, dated 2008).

Assay type in all cases: biochemical
The target in experiment [1] is c-Met (Homo sapiens, UniProt P08581). Briefly: Ki determination for the inhibition of c-Met, coupled enzyme system. The conditions noted are these: 200 μM ATP, 10 μM polyGluTyr, 80 nM c-Met, 30° C. The method, then: Compounds were screened for their ability to inhibit c-Met kinase activity using a standard coupled enzyme system (Fox et al., Protein Sci. 1998, 7, 2249). Reactions were carried out in a solution containing 100 mM HEPES (pH 7.5), 10 mM MgCl2, 25 mM NaCl, 300 μM NADH, 1 mM DTT, and 1.5% DMSO. Final substrate concentrations in the assay were 200 μM ATP (Sigma Chemicals, St Louis, Mo.) and 10 μM polyGluTyr (Sigma Chemical Company, St. Louis). Reactions were carried out at 30° C. and 80 nM c-Met. Final concentrations of the components of the coupled enzyme system were 2.5 mM phosphoenolpyruvate, 300 μM NADH, 30 μg/ml pyruvate kinase and 10 μg/ml lactate dehydrogenase.
An assay stock buffer solution was prepared containing all of the reagents listed above with the exception of ATP and a test compound of the present invention. The assay stock buffer solution (175 μl) was incubated in a 96 well plate with 5 μl of the test compound of the present invention at final concentrations spanning 0.006 μM to 12.5 μM at 30° C. for 10 minutes. Typically, a 12-point titration was conducted by preparing serial dilutions (from 10 mM compound stocks) with DMSO of the test compounds of the present invention in daughter plates. The reaction was initiated by the addition of 20 μl of ATP (final concentration 200 μM). Rates of reaction were obtained using a Molecular Devices Spectramax plate reader (Sunnyvale, Calif.) over 10 minutes at 30° C. The Ki values were determined from the rate data as a function of inhibitor concentration.

The target in experiment [2] is T1, JAK3 (Homo sapiens, UniProt P52333).
T1 sequence (P52333 1-1124): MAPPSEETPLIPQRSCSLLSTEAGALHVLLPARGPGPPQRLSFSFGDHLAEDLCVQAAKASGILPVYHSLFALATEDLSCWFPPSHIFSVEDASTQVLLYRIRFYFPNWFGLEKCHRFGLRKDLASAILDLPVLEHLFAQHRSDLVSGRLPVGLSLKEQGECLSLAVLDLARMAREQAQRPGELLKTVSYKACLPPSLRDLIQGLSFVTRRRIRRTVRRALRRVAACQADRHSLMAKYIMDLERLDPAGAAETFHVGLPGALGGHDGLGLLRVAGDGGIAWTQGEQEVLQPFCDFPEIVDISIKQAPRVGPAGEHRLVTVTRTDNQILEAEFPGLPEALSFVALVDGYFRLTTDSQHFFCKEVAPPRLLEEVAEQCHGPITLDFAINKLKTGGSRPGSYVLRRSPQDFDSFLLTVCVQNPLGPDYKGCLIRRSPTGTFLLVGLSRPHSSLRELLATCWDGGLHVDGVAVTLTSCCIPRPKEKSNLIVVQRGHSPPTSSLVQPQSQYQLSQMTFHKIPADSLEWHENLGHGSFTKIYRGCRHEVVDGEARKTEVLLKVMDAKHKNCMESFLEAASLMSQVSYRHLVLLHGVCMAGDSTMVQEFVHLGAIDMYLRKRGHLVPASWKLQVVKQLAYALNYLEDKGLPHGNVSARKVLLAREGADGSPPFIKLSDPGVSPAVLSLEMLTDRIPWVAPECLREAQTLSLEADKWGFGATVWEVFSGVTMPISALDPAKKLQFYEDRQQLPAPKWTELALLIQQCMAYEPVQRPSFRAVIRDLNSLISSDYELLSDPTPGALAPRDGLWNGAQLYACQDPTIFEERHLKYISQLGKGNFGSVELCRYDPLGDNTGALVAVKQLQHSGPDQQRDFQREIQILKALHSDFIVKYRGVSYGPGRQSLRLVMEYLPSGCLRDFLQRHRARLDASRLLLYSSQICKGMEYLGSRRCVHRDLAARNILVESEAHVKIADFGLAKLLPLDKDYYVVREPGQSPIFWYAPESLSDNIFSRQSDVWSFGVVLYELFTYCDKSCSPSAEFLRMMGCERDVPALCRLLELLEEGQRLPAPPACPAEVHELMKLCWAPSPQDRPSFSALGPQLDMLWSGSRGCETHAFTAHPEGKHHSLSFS
In words: JAK3 inhibition assay (ELISA, Poly (Glu, Ala, Tyr) coated plates). The conditions noted are these: 2 mM ATP, 60 minutes at 30° C. The method, then:
Compound inhibition of JAK3 was assayed by the method described by G. R. Brown, et al., Bioorg. Med. Chem. Lett. 2000, vol. 10, pp 575-579 in the following manner. Into Maxisorb plates, previously coated at 4° C. with Poly (Glu, Ala, Tyr) 6:3:1 then washed with phosphate buffered saline 0.05% and Tween (PBST), was added 2 mM ATP, 5 mM MgCl2, and a solution of compound in DMSO. The reaction was started with JAK enzyme and the plates incubated for 60 minutes at 30° C. The plates were then washed with PBST, […] HRP-Conjugated 4G10 antibody was added, and the plate incubated for 90 minutes at 30° C. The plate was again washed with PBST, […] TMB solution is added, and the plates were incubated for another 30 minutes at 30° C. Sulfuric acid ([…] of 1M) was added to stop the reaction and the plate is read at 450 nm to obtain the optical densities for analysis to determine IC50 values.
In general terms: An ELISA detects its analyte on a solid surface through an enzyme-linked reagent.

The target in experiment [3] is KDR (Homo sapiens, UniProt P35968). In words: KDR enzyme assay, coupled enzyme assay. The conditions noted are these: 300 μM ATP, 10 μM poly E4Y, 30 nM KDR, 37° C. The method, then:
Compounds were screened for their ability to inhibit KDR using a standard coupled enzyme assay (Fox et al., Protein Sci., (1998) 7, 2249). Assays were carried out in a mixture of 200 mM HEPES 7.5, 10 mM MgCl2, 25 mM NaCl, 1 mM DTT and 1.5% DMSO. Final substrate concentrations in the assay were 300 μM ATP (Sigma Chemicals) and 10 μM poly E4Y (Sigma). Assays were carried out at 37° C. and 30 nM KDR. Final concentrations of the components of the coupled enzyme system were 2.5 mM phosphoenolpyruvate, 200 μM NADH, 30 μg/ML pyruvate kinase and 10 μg/ml lactate dehydrogenase.
An assay stock buffer solution was prepared containing all of the reagents listed above, with the exception of ATP and the test compound of interest. 177 μl of the stock solution was placed in a 96 well plate followed by addition of 3 μl of 2 mM DMSO stock containing the test compound (final compound concentration 30 μM). The plate was preincubated for about 10 minutes at 37° C. and the reaction initiated by addition of 20 μl of ATP (final concentration 300 μM). Rates of reaction were obtained using a Molecular Devices plate reader (Sunnyvale, Calif.) over a 5 minute read time at 37° C.

Experiment [4] concerns the target GSK-3β, (AA 1-420) (Homo sapiens, UniProt P49841). Briefly: GSK-3 inhibition assay, coupled enzyme system. The conditions noted are these: 20 μM ATP, 300 μM peptide, 20 nM GSK-3b, 30° C.; read-out: Ki values (GSK3). The method, then: Compounds of the present invention were screened for their ability to inhibit GSK-3β, (AA 1-420) activity using a standard coupled enzyme system (Fox et al., Protein Sci. 1998, 7, 2249). Reactions were carried out in a solution containing 100 mM HEPES (pH 7.5), 10 mM MgCl2, 25 mM NaCl, 300 μM NADH, 1 mM DTT and 1.5% DMSO. Final substrate concentrations in the assay were 20 μM ATP (Sigma Chemicals, St Louis, Mo.) and 300 μM peptide (American Peptide, Sunnyvale, Calif.). Reactions were carried out at 30° C. and 20 nM GSK-3b. Final concentrations of the components of the coupled enzyme system were 2.5 mM phosphoenolpyruvate, 300 μM NADH, 30 μg/ml pyruvate kinase and 10 μg/ml lactate dehydrogenase.
An assay stock buffer solution was prepared containing all of the reagents listed above with the exception of ATP and the test compound of the present invention. The assay stock buffer solution (175 μl) was incubated in a 96 well plate with 5 μl of the test compound of the present invention at final concentrations spanning 0.002 μM to 30 μM at 30° C. for 10 min. Typically, a 12 point titration was conducted by preparing serial dilutions (from 10 mM compound stocks) with DMSO of the test compounds of the present invention in daughter plates. The reaction was initiated by the addition of 20 μl of ATP (final concentration 20 μM). Rates of reaction were obtained using a Molecular Devices Spectramax plate reader (Sunnyvale, Calif.) over 10 min at 30° C. The Ki values were determined from the rate data as a function of inhibitor concentration.

Bounds are passed on as bounds.

Chain of GSK-3β, (AA 1-420) (P49841 whole entry, the tested form may be a part): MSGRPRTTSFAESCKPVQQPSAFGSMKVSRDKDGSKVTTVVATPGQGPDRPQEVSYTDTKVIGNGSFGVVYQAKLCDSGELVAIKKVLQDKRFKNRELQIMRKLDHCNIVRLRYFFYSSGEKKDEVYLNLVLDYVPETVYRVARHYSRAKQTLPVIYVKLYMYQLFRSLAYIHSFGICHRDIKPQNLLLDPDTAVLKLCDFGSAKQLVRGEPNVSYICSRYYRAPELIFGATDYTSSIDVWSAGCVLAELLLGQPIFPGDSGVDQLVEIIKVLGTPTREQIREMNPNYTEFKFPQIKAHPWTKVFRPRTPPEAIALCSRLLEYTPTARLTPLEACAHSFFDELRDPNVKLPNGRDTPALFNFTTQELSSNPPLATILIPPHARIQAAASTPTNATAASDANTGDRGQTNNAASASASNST
Chain of c-Met (P08581 25-1390): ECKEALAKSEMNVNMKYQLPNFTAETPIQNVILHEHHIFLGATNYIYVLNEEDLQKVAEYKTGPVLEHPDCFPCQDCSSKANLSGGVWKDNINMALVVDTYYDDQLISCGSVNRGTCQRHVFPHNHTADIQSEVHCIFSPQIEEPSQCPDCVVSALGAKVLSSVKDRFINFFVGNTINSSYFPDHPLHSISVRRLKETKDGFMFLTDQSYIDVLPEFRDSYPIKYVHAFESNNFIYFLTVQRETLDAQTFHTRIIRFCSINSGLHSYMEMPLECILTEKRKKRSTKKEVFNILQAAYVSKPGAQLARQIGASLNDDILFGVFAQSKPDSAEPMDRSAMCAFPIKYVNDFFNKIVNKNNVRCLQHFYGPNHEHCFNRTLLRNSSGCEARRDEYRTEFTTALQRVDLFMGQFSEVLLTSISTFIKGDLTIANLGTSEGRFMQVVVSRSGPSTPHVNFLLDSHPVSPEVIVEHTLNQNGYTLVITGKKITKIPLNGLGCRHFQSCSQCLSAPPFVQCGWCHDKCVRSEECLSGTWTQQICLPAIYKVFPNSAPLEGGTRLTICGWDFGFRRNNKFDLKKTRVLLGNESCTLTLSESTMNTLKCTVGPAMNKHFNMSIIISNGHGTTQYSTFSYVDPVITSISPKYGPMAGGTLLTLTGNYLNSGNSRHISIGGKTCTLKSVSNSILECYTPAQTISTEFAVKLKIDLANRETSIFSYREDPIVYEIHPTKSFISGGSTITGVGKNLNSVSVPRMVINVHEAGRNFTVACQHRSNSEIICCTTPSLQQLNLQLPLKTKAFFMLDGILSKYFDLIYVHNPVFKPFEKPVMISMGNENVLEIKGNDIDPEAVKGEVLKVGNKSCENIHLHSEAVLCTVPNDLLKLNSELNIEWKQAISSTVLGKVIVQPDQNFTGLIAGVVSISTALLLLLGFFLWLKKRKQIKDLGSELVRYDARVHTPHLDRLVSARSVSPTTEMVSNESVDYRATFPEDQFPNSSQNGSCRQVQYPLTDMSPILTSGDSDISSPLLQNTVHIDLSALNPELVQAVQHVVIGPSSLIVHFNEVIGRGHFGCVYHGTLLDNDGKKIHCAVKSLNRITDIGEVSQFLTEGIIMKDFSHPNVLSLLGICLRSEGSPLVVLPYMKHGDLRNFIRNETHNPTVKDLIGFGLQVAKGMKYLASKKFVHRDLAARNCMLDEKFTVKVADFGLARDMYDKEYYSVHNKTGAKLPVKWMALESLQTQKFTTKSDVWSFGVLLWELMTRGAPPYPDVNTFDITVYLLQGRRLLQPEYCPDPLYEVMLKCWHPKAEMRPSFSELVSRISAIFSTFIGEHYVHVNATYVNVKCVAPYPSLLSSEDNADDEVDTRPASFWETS
Chain of KDR (P35968 20-1356): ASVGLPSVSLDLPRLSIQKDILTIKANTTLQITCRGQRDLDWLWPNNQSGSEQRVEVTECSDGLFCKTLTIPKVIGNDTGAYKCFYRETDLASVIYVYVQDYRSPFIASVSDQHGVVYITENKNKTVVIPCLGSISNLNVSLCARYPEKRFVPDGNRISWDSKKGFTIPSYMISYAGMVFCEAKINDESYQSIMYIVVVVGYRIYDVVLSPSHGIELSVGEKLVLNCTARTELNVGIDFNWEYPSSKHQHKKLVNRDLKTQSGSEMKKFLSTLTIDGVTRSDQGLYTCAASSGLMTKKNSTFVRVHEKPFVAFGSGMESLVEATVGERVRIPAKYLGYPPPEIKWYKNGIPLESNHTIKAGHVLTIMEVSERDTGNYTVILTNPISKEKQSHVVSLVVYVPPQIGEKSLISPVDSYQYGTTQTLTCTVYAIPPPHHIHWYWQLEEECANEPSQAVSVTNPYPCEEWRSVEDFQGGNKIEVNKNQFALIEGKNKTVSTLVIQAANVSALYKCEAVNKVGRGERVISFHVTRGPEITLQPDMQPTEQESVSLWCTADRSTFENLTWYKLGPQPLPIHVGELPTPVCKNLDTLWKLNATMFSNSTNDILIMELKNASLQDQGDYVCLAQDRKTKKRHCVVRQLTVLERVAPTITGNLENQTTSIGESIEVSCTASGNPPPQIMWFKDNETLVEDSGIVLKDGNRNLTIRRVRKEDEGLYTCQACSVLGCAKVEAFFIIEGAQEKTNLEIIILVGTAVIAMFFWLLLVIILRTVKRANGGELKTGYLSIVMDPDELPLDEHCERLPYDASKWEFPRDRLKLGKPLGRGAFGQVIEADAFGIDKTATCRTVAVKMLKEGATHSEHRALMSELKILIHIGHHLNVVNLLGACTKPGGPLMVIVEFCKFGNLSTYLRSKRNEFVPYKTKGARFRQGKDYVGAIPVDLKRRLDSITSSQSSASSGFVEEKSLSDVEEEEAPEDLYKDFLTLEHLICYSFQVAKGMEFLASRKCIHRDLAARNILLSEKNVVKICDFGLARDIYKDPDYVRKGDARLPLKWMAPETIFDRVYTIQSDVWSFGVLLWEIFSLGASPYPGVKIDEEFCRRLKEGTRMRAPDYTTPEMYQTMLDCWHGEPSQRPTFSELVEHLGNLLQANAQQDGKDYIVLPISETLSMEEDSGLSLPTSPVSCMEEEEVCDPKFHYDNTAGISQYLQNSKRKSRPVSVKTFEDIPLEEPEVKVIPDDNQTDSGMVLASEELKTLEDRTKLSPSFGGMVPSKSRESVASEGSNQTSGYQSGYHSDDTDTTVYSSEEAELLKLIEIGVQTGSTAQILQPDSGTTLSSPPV

As usually defined, the Ki is the equilibrium dissociation constant of an inhibitor or competing ligand from its target. In the case of `Fc1cccc(-c2cnoc2-c2c[nH]c3nc(Cl)ccc23)c1F` [Compound 101, 6-Chloro-3-[4-(2,3-difluoro-phenyl)-isoxazol-5-yl]-1H-pyrrolo[2,3-b]pyridine], in experiment [1], the inhibition constant Ki was 1000 to 12500 nM.

Regarding `CCNc1ccc2c(-c3oncc3-c3cccc(F)c3F)n[nH]c2n1` [Compound 30, {3-[4-(2,3-Difluoro-phenyl)-isoxazol-5-yl]-1H-pyrazolo[3,4-b]pyridin-6-yl}-ethyl-amine], in experiment [1], the inhibitory constant (Ki) is 1000 to 12500 nM. In experiment [1], `O=c1c2[nH]cc(-c3oncc3-c3cccc(F)c3F)c2ccn1Cc1ccccc1` [Compound 147, 6-Benzyl-3-[4-(2,3-difluoro-phenyl)-isoxazol-5-yl]-1,6-dihydro-pyrrolo[2,3-c]pyridin-7-one] came in with a Ki of 1000 to 12500 nM. On the same count and under the same terms, for `Fc1cccc(-n2cnnc2-c2c[nH]c3ncccc23)c1F` [Compound 107, 3-[4-(2,3-Difluoro-phenyl)-4H-[1,2,4]triazol-3-yl]-1H-pyrrolo[2,3-b]pyridine] the value was 1000 to 12500 nM. For `COc1cccc(-c2cnoc2-c2c[nH]c3ncccc23)c1OC` [Compound 51, 3-[4-(2,3-Dimethoxy-phenyl)-isoxazol-5-yl]-1H-pyrrolo[2,3-b]pyridine], the Ki lay in the range of 200 to 1000 nM in experiment [2], 1000 to 12500 nM in experiment [3] and 1000 to 12500 nM in experiment [1]. Consider `N#Cc1ccc(-c2cnc3[nH]cc(-c4oncc4-c4cccc(F)c4F)c3c2)cc1` [Compound 89, 4-{3-[4-(2,3-Difluoro-phenyl)-isoxazol-5-yl]-1H-pyrrolo [2,3-b]pyridin-5-yl}-benzonitrile], for which the inhibitory constant (Ki) in experiment [4] is 200 to 1000 nM; in experiment [3] it was below 200 nM; in experiment [1] it was below 200 nM. `Fc1cccc(-c2cnoc2-c2c[nH]c3nc(N4CCCC4)ccc23)c1F` [Compound 100, 3-[4-(2,3-Difluoro-phenyl)-isoxazol-5-yl]-6-pyrrolidin-1-yl-1H-pyrrolo[2,3-b]pyridine]: the Ki in experiment [1] was in the range of 1000 to 12500 nM.

`CN(C)c1ccc2c(-c3oncc3-c3cccc(F)c3F)n[nH]c2n1` [Compound 32] came in with a Ki in experiment [1] of 1000 to 12500 nM. Turning to `c1cncc(-c2cnoc2-c2c[nH]c3ncccc23)c1` [Compound 52, 3-(4-Pyridin-3-yl-isoxazol-5-yl)-1H-pyrrolo[2,3-b]pyridine], the inhibitory constant (Ki) in experiment [4], in experiment [2] and in experiment [1] was 1000 to 12500 nM in each case. For the compound `Fc1cccc(-n2nnnc2-c2c[nH]c3ncccc23)c1F` [Compound 11, 3-[1-(2,3-Difluoro-phenyl)-1H-tetrazol-5-yl]-1H-pyrrolo [2,3-b]pyridine], the inhibition constant (Ki) in experiment [1] was 1000 to 12500 nM. On to `[O-][n+]1cccc2c(-c3oncc3-c3cccc(F)c3F)c[nH]c21` [Compound 151], for which the inhibition constant (Ki) in experiment [4] and in experiment [1] was 1000 to 12500 nM each time. Consider `Fc1cccc(-c2cnoc2-c2c[nH]c3c(F)cccc23)c1F` [Compound 33, 3-[4-(2,3-Difluoro-phenyl)-isoxazol-5-yl]-7-fluoro-1H-indole], for which, in experiment [4], the inhibitory constant (Ki) fell in the range of 1000 to 12500 nM. In experiment [1], `COC(=O)Cn1ccc2c(-c3oncc3-c3cccc(F)c3F)c[nH]c2c1=O` [Compound 146, {3-[4-(2,3-Difluoro-phenyl)-isoxazol-5-yl]-7-oxo-1,7-di hydro-pyrrolo[2,3-c]pyridin-6-yl}-acetic acid methyl ester] gave a Ki of 1000 to 12500 nM. Consider `c1ccc(-c2cnoc2-c2c[nH]c3ncccc23)nc1` [Compound 50, 3-(4-Pyridin-2-yl-isoxazol-5-yl)-1H-pyrrolo[2,3-b]pyridine], for which the Ki in experiment [2] is 1000 to 12500 nM. For `Fc1cccc(-c2cnoc2-c2n[nH]c3ncc(Br)cc23)c1F` [Compound 148], the Ki in experiment [4] is 1000 to 12500 nM; in experiment [3], 200 to 1000 nM; in experiment [1] it was 200 to 1000 nM.
